Source: patent publication US20240174690A1, “ANNULATED 2-AMINO-3-CYANO THIOPHENES AND DERIVATIVES FOR THE TREATMENT OF CANCER” (BOEHRINGER INGELHEIM INTERNATIONAL GMBH, priority 2021, published 2024)
≈ marks a conversion by molar mass, not a printed value. Where two headings read alike, the source gives them in different places.

How the values were obtained:
[1] = tested on: KRAS G12C-dependent Ba/F3 cells; test: Ba/F3 proliferation assay, KRAS G12C; type: cell-based; conditions: Mus musculus, BaF3, 72 h, AlamarBlue
Procedure, shortened: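 Ba/F3 cells were retrovirally transduced with KRAS G12 mutant vectors, puromycin-selected (1 μg/mL) and grown without IL-3 to make them KRAS-dependent. Compounds were tested in technical duplicates, viability was read by AlamarBlue fluorescence, and values came from curve fitting.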

NCI-H358 cells = test: NCI-H358 CTG proliferation assay (120 h) (NSCLC, G12C); type: cell-based, human; conditions: Homo sapiens, assay 2, CTG, read-out: H358 (assay 2) IC50
Procedure, shortened: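 NCI-H358 cells (KRAS G12C) were seeded at 2000/well (assay 1) or 200/well (assay 2) in RPMI-1640 + 10% FCS and dosed with a logarithmic series, DMSO-normalized. After 120 h, viability was read by CellTiter-Glo luminescence as percent of DMSO control, with a T0 read at dosing. IC50 came from a four-parameter fit.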

NCI-H2122 cells = test: NCI-H2122 CTG proliferation assay (120 h) (NSCLC, G12C); type: cell-based; conditions: Homo sapiens
Procedure, shortened: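 NCI-H2122 cells (KRAS G12C NSCLC), 200 per well in RPMI with 10% FCS, were dosed with compound on day 1 and incubated 120 h at 37 °C. Viability was read by CellTiter-Glo luminescence as percent of DMSO control, and IC50 was fitted with a four-parameter model.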

SAS cells = test: SAS CTG proliferation assay (120 h) (HNSCC, wt amplified); type: cell-based
Procedure, shortened: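 SAS cells plated at 300 per well in DMEM:F12 with 10% FCS and left overnight, then given compounds acoustically. After 120 h exposure, viability read by CellTiter-Glo as percent of DMSO control. IC50 from four-parameter non-linear regression.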

[2] = Solubility measurement (DMSO solution method), McIlvaine buffer pH 4.5 or 6.8; type: physicochemical; conditions: aqueous buffer, kinetic from dmso stock, DMSO stock diluted to 250 μM, 24 h shaking at ambient temperature
Procedure, shortened: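 DMSO stock diluted into McIlvaine buffer, pH 4.5 or 6.8, to 250 µM final, shaken 24 h at ambient temperature. Precipitate removed by filtration; filtrate quantified by LC-UV against a fully dissolved reference in acetonitrile/water 1:1.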

[3] = McIlvaine buffer pH 4.5, read-out: solubility pH 4.5
[4] = McIlvaine buffer pH 6.8, read-out: solubility pH 6.8

SMILES | IC50 [1] | IC50 (NCI-H358 cells) | IC50 (NCI-H2122 cells) | solubility at 24 h [2, 3] | solubility at 24 h [2, 4] | IC50 (SAS cells)
C[C@H](O)Cn1ccc(-c2cc(O[C@@H](C)[C@@H]3CCCN3C)nc(-c3noc4c3CCC[C@@]43CCCc4sc(N)c(C#N)c43)n2)n1 [II-112] | 0.011 µM | 0.141 µM | 0.197 µM | > 0.139 mg/mL | 0.121 mg/mL (≈ 197 µM) | 0.054 µM
COC(=O)c1ccc(-c2cc(O[C@@H](C)[C@@H]3CCCN3C)nc(-c3noc4c3CCC[C@@]43CCCc4sc(N)c(C#N)c43)n2)o1 [II-114] | 0.016 µM | 0.123 µM | 0.68 µM | 0.041 mg/mL (≈ 66.7 µM) | < 0.001 mg/mL | 0.028 µM
C[C@H](Oc1cc(-c2ccn(C[C@@H](C)O)n2)nc(-c2noc3c2CCC[C@@]32CCCc3sc(N)c(C#N)c32)n1)[C@@H]1CCCN1C [II-117] | 0.007 µM | 0.098 µM | 0.047 µM | > 0.183 mg/mL | > 0.147 mg/mL | 0.022 µM
C[C@H](Oc1cc(-n2cc(C3CC3)nn2)nc(-c2noc3c2CCC[C@@]32CCCc3sc(N)c(C#N)c32)n1)[C@@H]1CCCN1C [II-118] | 0.025 µM | 0.295 µM | 1.01 µM | 0.032 mg/mL (≈ 53.5 µM) | < 0.001 mg/mL | 0.931 µM
C[C@H](Oc1cc(-n2ccc(-c3ccccn3)n2)nc(-c2noc3c2CCC[C@@]32CCCc3sc(N)c(C#N)c32)n1)[C@@H]1CCCN1C [II-119] | 0.008 µM | 0.042 µM | 0.251 µM | < 0.001 mg/mL | < 0.001 mg/mL | 0.039 µM
C[C@H](Oc1cc(-n2ccnc2)nc(-c2noc3c2CCC[C@@]32CCCc3sc(N)c(C#N)c32)n1)[C@@H]1C[C@@H](F)CN1C [II-120] | 0.027 µM | 0.19 µM | 1.09 µM | 0.106 mg/mL (≈ 184 µM) | < 0.001 mg/mL | 0.488 µM

The next lines start with results.

IC50 [1] | IC50 (NCI-H358 cells) | IC50 (NCI-H2122 cells) | solubility at 24 h [2, 3] | solubility at 24 h [2, 4] | SMILES | IC50 (SAS cells)
0.01 µM | 0.139 µM | 0.858 µM | 0.022 mg/mL (≈ 38.3 µM) | < 0.001 mg/mL | C[C@H](Oc1cc(-c2cnsc2)nc(-c2noc3c2CCC[C@@]32CCCc3sc(N)c(C#N)c32)n1)[C@@H]1CCCN1C [II-111] | 0.057 µM
0.025 µM | 0.128 µM | 0.661 µM | > 0.173 mg/mL | 0.107 mg/mL (≈ 168 µM) | C[C@H](Oc1cc(-n2cc(Cn3ccnc3)nn2)nc(-c2noc3c2CCC[C@@]32CCCc3sc(N)c(C#N)c32)n1)[C@@H]1CCCN1C [II-113] | 0.381 µM
0.013 µM | 0.268 µM | 0.58 µM | 0.109 mg/mL (≈ 181 µM) | 0.069 mg/mL (≈ 115 µM) | COCc1cn(-c2cc(O[C@@H](C)[C@@H]3CCCN3C)nc(-c3noc4c3CCC[C@@]43CCCc4sc(N)c(C#N)c43)n2)nn1 [II-121] | 0.56 µM
0.021 µM | 0.823 µM | 0.961 µM | 0.122 mg/mL (≈ 198 µM) | 0.098 mg/mL (≈ 159 µM) | CNC(=O)c1cn(-c2cc(O[C@@H](C)[C@@H]3CCCN3C)nc(-c3noc4c3CCC[C@@]43CCCc4sc(N)c(C#N)c43)n2)nn1 [II-122] | 0.889 µM
0.015 µM | 0.439 µM | 0.878 µM | < 0.001 mg/mL | < 0.001 mg/mL | C[C@H](Oc1cc(-n2cc(-c3cccnc3)nn2)nc(-c2noc3c2CCC[C@@]32CCCc3sc(N)c(C#N)c32)n1)[C@@H]1CCCN1C [II-123] | 0.113 µM
0.009 µM | 0.114 µM | 0.901 µM | > 0.148 mg/mL | 0.108 mg/mL (≈ 169 µM) | C[C@H](Oc1cc(-n2cc(Cn3cncn3)nn2)nc(-c2noc3c2CCC[C@@]32CCCc3sc(N)c(C#N)c32)n1)[C@@H]1CCCN1C [II-124] | 0.068 µM
